Experimental data published in US20220395438A1, “TOOTH WHITENING COMPOSITION” (Universitat Autonoma de Barcelona, priority 2019, published 2022).

Assay: Tooth whitening treatments at 20 minutes according to 2^2 factorial design (colorimetric ΔE)
Design: species or system bovine
Conditions: 8 specimens per treatment

SMILES: O=S([O-])S(=O)(=O)[O-].[Na+].[Na+] [Comparative 2, sodium metabisulfite]
- increase in the whiteness of the tooth, ΔE ± standard deviation (3 minutes of treatment): 7.3 ± 1.5
- increase in the whiteness of the tooth, ΔE ± standard deviation (3 minutes of treatment, listed as MBS): 7.3
- increase in the whiteness of the tooth, ΔE ± standard deviation (6 minutes of treatment): 12.9 ± 0.8
- increase in the whiteness of the tooth, ΔE ± standard deviation (9 minutes of treatment): 14.7 ± 1.8
- increase in the whiteness of the tooth, ΔE ± standard deviation (14 minutes of treatment): 14.8 ± 1.7
- increase in the whiteness of the tooth, ΔE ± standard deviation (20 minutes of treatment): 16.2 ± 1.7
